By IC50 is commonly meant the concentration at which inhibition is half-maximal.

Assay [1] addresses T1, hMAO-A (Homo sapiens, UniProt P21397).
T1 construct: purchased Sigma-Aldrich; host or cells: insect cells (BTI-TN-5B1-4), recombinant baculovirus
T1 sequence (P21397 1-527): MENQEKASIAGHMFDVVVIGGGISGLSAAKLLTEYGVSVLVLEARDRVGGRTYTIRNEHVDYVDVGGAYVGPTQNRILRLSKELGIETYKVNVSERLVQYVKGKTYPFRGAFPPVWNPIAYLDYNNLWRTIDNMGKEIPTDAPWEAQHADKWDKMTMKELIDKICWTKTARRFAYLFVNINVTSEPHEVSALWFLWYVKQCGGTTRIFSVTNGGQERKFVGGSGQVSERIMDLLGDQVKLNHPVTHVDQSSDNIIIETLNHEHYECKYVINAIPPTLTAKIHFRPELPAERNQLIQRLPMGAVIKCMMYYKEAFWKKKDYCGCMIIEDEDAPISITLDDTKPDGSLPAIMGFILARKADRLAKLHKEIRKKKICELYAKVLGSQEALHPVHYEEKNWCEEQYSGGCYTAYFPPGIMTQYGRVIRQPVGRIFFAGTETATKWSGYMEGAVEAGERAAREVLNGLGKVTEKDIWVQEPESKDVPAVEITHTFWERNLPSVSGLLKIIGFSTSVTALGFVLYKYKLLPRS
Description: In vitro hMAO-A inhibition, spectrophotometric Kynuramine deamination assay. It counts as biochemical. The method, then: (§1) To this end, a spectrophotometric method based on the oxidative deamination of Kynuramine by recombinant hMAO-A or hMAO-B was used.
(§2) The inhibitory activity of Bergamottin on hMAO-A and hMAO-B was studied using an experimental protocol described elsewhere. The hMAO inhibitory activity was assessed in microsomal MAO isoforms prepared from insect cells (BTI-TN-5B1-4) infected with recombinant baculovirus containing cDNA inserts for hMAO-A or hMAO-B, and by measuring the enzymatic conversion rates of Kynuramine into 4-hydroxyquinoline. […] All assays were performed in sodium phosphate buffer solution 50 mM pH 7.4.
(§3) Then, the reaction was started with the addition of hMAO-A or hMAO-B. Initial velocities were determined spectrophotometrically in a microplate reader (BioTek Synergy HT from BioTek Instruments, Winooski, VT, USA) at 37 °C by measuring the formation of 4-hydroxyquinoline at 316 nm, over a period of at least 30 min (interval of 1 min). Data were analyzed using GraphPad PRISM version 6 for Windows (GraphPad Software®, San Diego, CA, USA). […] IC50 values were obtained from dose–response curves and were expressed as mean ± standard deviation. IC50 values were determined from at least three independent experiments, each performed in triplicate. […]

The target in assay [2] is T2, hMAO-B (Homo sapiens, UniProt P27338).
T2 construct: purchased Sigma-Aldrich; host or cells: insect cells (BTI-TN-5B1-4), recombinant baculovirus
T2 sequence (P27338 1-520): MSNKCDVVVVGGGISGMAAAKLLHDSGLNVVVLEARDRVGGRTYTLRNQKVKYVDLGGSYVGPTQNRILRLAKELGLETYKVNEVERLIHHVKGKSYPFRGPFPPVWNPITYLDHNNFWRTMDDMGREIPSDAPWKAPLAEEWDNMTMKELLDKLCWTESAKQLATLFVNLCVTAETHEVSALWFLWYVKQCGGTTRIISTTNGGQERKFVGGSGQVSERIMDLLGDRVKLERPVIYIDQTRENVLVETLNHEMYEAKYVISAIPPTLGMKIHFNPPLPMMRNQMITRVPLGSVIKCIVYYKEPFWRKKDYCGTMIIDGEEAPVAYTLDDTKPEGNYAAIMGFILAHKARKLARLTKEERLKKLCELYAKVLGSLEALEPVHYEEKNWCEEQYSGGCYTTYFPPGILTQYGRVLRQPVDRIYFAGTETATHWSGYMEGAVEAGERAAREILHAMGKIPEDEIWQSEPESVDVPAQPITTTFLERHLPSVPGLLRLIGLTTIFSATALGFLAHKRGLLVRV
The assay can be described thus: In vitro hMAO-B inhibition, spectrophotometric Kynuramine deamination assay. It counts as biochemical. As for the experimental part: as §1, §2, §3

Each structure is given as a SMILES string.

Turning to `CC(C)=CCC/C(C)=C/COc1c2ccoc2cc2oc(=O)ccc12` [Bergamottin], the 50% inhibitory concentration (IC50) in assay [1] amounted to 9.25 ± 0.91 µM; in assay [2] (recombinant hMAO-B, Kynuramine substrate), 0.291 µM. The “SI (selectivity index)” value in assay [2] (selectivity for hMAO-B over hMAO-A from the IC50 values) stood at 31.8.

The values above are taken from paper PMC9030833, “Molecular Modeling and Experimental Evaluation of Non-Chiral Components of Bergamot Essential Oil with Inhibitory Activity against Human Monoamine Oxidases” (Molecules, 2022).
